In patent US7745619B2, “Vinca derivatives” (priority 2003, dated 2010):

Key:
ACHN = assay: NCI 60-cell line growth inhibition assay: ACHN; type: cell-based; details: Homo sapiens
SW-620 = assay: NCI 60-cell line growth inhibition assay: SW-620; type: cell-based; details: Homo sapiens
MOLT-4 = assay: NCI 60-cell line growth inhibition assay: MOLT-4; type: cell-based; details: Homo sapiens
LOX IMVI = assay: NCI 60-cell line growth inhibition assay: LOX IMVI; type: cell-based; details: Homo sapiens
786-0 = assay: NCI 60-cell line growth inhibition assay: 786-0; type: cell-based; details: Homo sapiens
NCI/ADR-RES = type: cell-based; details: Homo sapiens
OVCAR-3 = assay: NCI 60-cell line growth inhibition assay: OVCAR-3; type: cell-based; details: Homo sapiens
OVCAR-8 = assay: NCI 60-cell line growth inhibition assay: OVCAR-8; type: cell-based; details: Homo sapiens
SF-295 = assay: NCI 60-cell line growth inhibition assay: SF-295; type: cell-based; details: Homo sapiens
UACC-62 = assay: NCI 60-cell line growth inhibition assay: UACC-62; type: cell-based; details: Homo sapiens
SK-OV-3 = assay: NCI 60-cell line growth inhibition assay: SK-OV-3; type: cell-based; details: Homo sapiens
A549/ATCC = assay: NCI 60-cell line growth inhibition assay: A549/ATCC; type: cell-based; details: Homo sapiens, A549
HCT-15 = assay: NCI 60-cell line growth inhibition assay: HCT-15; type: cell-based; details: Homo sapiens
TK-10 = assay: NCI 60-cell line growth inhibition assay: TK-10; type: cell-based; details: Homo sapiens
DU-145 = assay: NCI 60-cell line growth inhibition assay: DU-145; type: cell-based; details: Homo sapiens
IGROV1 = assay: NCI 60-cell line growth inhibition assay: IGROV1; type: cell-based; details: Homo sapiens, IGROV-1, Ovarian
Text: (§1) The following data in Table 4 summarize the growth inhibition properties of several compounds of the present invention against 60-human transformed cell lines.

PC-3 = assay: NCI 60-cell line growth inhibition assay: PC-3; type: cell-based; details: Homo sapiens
MCF7 = assay: NCI 60-cell line growth inhibition assay: MCF7; type: cell-based; details: Homo sapiens
NCI-H522 = type: cell-based; details: Homo sapiens
SK-MEL-5 = assay: NCI 60-cell line growth inhibition assay: SK-MEL-5; type: cell-based; details: Homo sapiens
HS 578T = assay: NCI 60-cell line growth inhibition assay: HS 578T; type: cell-based; details: Homo sapiens, Hs-578T
HOP-62 = assay: NCI 60-cell line growth inhibition assay: HOP-62; type: cell-based; details: Homo sapiens
KM12 = assay: NCI 60-cell line growth inhibition assay: KM12; type: cell-based; details: Homo sapiens
MDA-MB-435 = assay: NCI 60-cell line growth inhibition assay: MDA-MB-435; type: cell-based; details: Homo sapiens
MDA-MB-231/ATCC = assay: NCI 60-cell line growth inhibition assay: MDA-MB-231/ATCC; type: cell-based; details: Homo sapiens, MDA-MB-231
SNB-19 = assay: NCI 60-cell line growth inhibition assay: SNB-19; type: cell-based; details: Homo sapiens
CAKI-1 = assay: NCI 60-cell line growth inhibition assay: CAKI-1; type: cell-based; details: Homo sapiens
HT29 = assay: NCI 60-cell line growth inhibition assay: HT29; type: cell-based; details: Homo sapiens, HT-29
EKVX = assay: NCI 60-cell line growth inhibition assay: EKVX; type: cell-based; details: Homo sapiens
RPMI-8226 = assay: NCI 60-cell line growth inhibition assay: RPMI-8226; type: cell-based, human
Text: as §1

COLO 205 = assay: NCI 60-cell line growth inhibition assay: COLO 205; type: cell-based; details: Homo sapiens
M14 = assay: NCI 60-cell line growth inhibition assay: M14; type: cell-based; details: Homo sapiens
U251 = assay: NCI 60-cell line growth inhibition assay: U251; type: cell-based; details: Homo sapiens, U-251
SF-268 = assay: NCI 60-cell line growth inhibition assay: SF-268; type: cell-based; details: Homo sapiens, CNS
Text: as §1

HeLa S-3 cells = assay: HeLa GI50 determination (SRB growth inhibition); type: cell-based, human; details: Homo sapiens, HeLa S3, 48 h, read-out: HeLa Cells GI50 (nM)
Outline: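 Cells plated at 2×10^4/well; day-0 plate TCA-fixed, test compounds added at 10-fold dilutions for 2 days. SRB staining, absorbance at 490 nm; GI = 100×(T−T0)/(C−T0), GI50 from growth inhibition vs. concentration plots.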

HOP-92 = assay: NCI 60-cell line growth inhibition assay: HOP-92; type: cell-based; details: Homo sapiens
SN12C = assay: NCI 60-cell line growth inhibition assay: SN12C; type: cell-based; details: Homo sapiens
[1] = Homo sapiens, Leukemia, RPMI-8226

Compound	GI50 (ACHN)	GI50 (SW-620)	GI50 (MOLT-4)	GI50 (LOX IMVI)	GI50 (786-0)	GI50 (NCI/ADR-RES)	GI50 (OVCAR-3)	GI50 (OVCAR-8)	GI50 (SF-295)	GI50 (UACC-62)	GI50 (SK-OV-3)	GI50 (A549/ATCC)	GI50 (HCT-15)	GI50 (TK-10)	GI50 (DU-145)	GI50 (IGROV1)	GI50 (PC-3)	GI50 (MCF7)	GI50 (NCI-H522)	GI50 (SK-MEL-5)	also measured
CC[C@]1(O)C[C@H]2CN(CCc3c([nH]c4ccc(C#Cc5ccccc5)cc34)[C@@](C(=O)OC)(c3cc4c(cc3OC)N(C)[C@H]3[C@@](O)(C(=O)OC)[C@H](OC(C)=O)[C@]5(CC)C=CCN6CC[C@]43[C@@H]65)C2)C1 [Example 19, 12′-(2-phenylethynyl) vinblastine]	22 µM	1.77 µM	0.196 µM	> 100 µM	0.889 µM	1.44 µM	0.207 µM	32.2 µM	0.293 µM	2.04 µM	1.88 µM	37.3 µM	8.35 µM	0.313 µM	2.46 µM	2.21 µM	0.28 µM	0.396 µM	1.81 µM	0.757 µM	GI50 (HS 578T): 1.85 µM; GI50 (HOP-62): 0.571 µM; GI50 (KM12): 0.206 µM; GI50 (MDA-MB-435): 0.0605 µM; GI50 (MDA-MB-231/ATCC): 2.02 µM; GI50 (SNB-19): 1.79 µM; GI50 (CAKI-1): 0.557 µM; GI50 (HT29): 0.423 µM; GI50 (EKVX): 2.79 µM; GI50 (RPMI-8226; [1]): 0.252 µM; GI50 (COLO 205): 1.19 µM; GI50 (M14): 0.26 µM; GI50 (U251): 9.97 µM; GI50 (SF-268): 0.731 µM; GI50 (HeLa S-3 cells): > 1000 nM; GI50 (HOP-92): 0.335 µM; GI50 (SN12C): 2.47 µM
CCCC(=O)/C=C/c1ccc2[nH]c3c(c2c1)CCN1C[C@H](C[C@@](O)(CC)C1)C[C@]3(C(=O)OC)c1cc2c(cc1OC)N(C)[C@H]1[C@@](O)(C(=O)OC)[C@H](OC(C)=O)[C@]3(CC)C=CCN4CC[C@]21[C@@H]43 [Example 29, 12′-(3-oxohex-1-enyl)vinblastine]	0.0937 µM	1.3 µM	0.011 µM	< 0.01 µM	< 0.01 µM	18.1 µM	0.0597 µM	0.0226 µM	0.568 µM	< 0.01 µM	0.0169 µM	0.0287 µM	0.274 µM	3.24 µM	0.0152 µM	1.71 µM	0.0442 µM	0.0105 µM	0.0314 µM	0.42 µM	GI50 (HS 578T): 0.628 µM; GI50 (HOP-62): < 0.01 µM; GI50 (KM12): 0.212 µM; GI50 (MDA-MB-435): 0.0343 µM; GI50 (MDA-MB-231/ATCC): < 0.01 µM; GI50 (SNB-19): < 0.01 µM; GI50 (CAKI-1): 1.2 µM; GI50 (HT29): < 0.01 µM; GI50 (EKVX): 10.8 µM; GI50 (RPMI-8226; [1]): 0.0141 µM; GI50 (COLO 205): < 0.01 µM; GI50 (M14): < 0.01 µM; GI50 (U251): < 0.01 µM; GI50 (SF-268): 0.901 µM; GI50 (HeLa S-3 cells): 515 nM; GI50 (HOP-92): 9.93 µM; GI50 (SN12C): < 0.01 µM
CCC1=C[C@H]2CN(CCc3c([nH]c4ccc(Br)cc34)[C@@](C(=O)OC)(c3cc4c(cc3OC)N(C)[C@H]3[C@@](O)(C(=O)OC)[C@H](OC(C)=O)[C@]5(CC)C=CCN6CC[C@]43[C@@H]65)C2)C1 [Example 97, 12′-bromoanhydro vinblastine]	0.0641 µM	< 0.01 µM	< 0.01 µM	< 0.01 µM	< 0.01 µM	0.0779 µM	< 0.01 µM	< 0.01 µM	< 0.01 µM	< 0.01 µM	< 0.01 µM	< 0.01 µM	< 0.01 µM	< 0.01 µM	< 0.01 µM	< 0.01 µM	< 0.01 µM	< 0.01 µM	< 0.01 µM	< 0.01 µM	GI50 (HS 578T): < 0.01 µM; GI50 (HOP-62): < 0.01 µM; GI50 (KM12): < 0.01 µM; GI50 (MDA-MB-435): < 0.01 µM; GI50 (MDA-MB-231/ATCC): < 0.01 µM; GI50 (SNB-19): < 0.01 µM; GI50 (CAKI-1): 0.589 µM; GI50 (HT29): < 0.01 µM; GI50 (EKVX): 10.2 µM; GI50 (RPMI-8226; [1]): < 0.01 µM; GI50 (RPMI-8226; Renal, RPMI-8226 (last line of Table 4, repeats the Leukemia line)): < 0.01 µM; GI50 (COLO 205): < 0.01 µM; GI50 (M14): < 0.01 µM; GI50 (U251): < 0.01 µM; GI50 (SF-268): < 0.01 µM; GI50 (HeLa S-3 cells): 30 nM; GI50 (HOP-92): 12.2 µM; GI50 (SN12C): < 0.01 µM
